These results are taken from patent US20140343159A1, “FORMULATION OF SMALL ADRENERGIC AGONIST SALT FORMS IN ORGANIC SOLVENTS” (PROCERTUS BIOPHARM, INC., priority 2011, published 2014).

Data set [1] is classed as physicochemical. The protocol:
Known weights of (−) norepinephrine-tartrate dry powder were added to individual, 2.0 ml clear glass vials. An appropriate volume of ethanol and water at a ratio of 70:30 by volume solvent was then added to achieve the indicated concentrations. Sealed vials were vortexed for five seconds and then left at room temperature for 24 hr in the dark before examination to determine turbidity of liquid due to undissolved material.
Known weights of (−) norepinephrine-tartrate or (+/−) norepinephrine-HCl dry powders were added to individual, 2.0 ml, clear glass vials. An appropriate volume of ethanol to water (70:30) solvent was then added to achieve the indicated concentrations. Sealed vials were vortexed for five seconds and then left at room temperature for 24 hr in the dark before examination to determine turbidity of liquid due to undissolved material. Table 2, below, provides the solubility of (+/−) norepinephrine-HCl and (−) norepinephrine-tartrate in topical delivery vehicle of ethanol and water (70:30).
Known weights of the indicated norepinephrine salts were added to individual, 2.0 ml, clear glass vials. An appropriate volume of 70:30 (ethanol:water) solvent was then added to achieve the indicated concentrations. Sealed vials were vortexed for five seconds and then left at room temperature for 24 hr before examination to determine turbidity of liquid due to undissolved material.

Data set [2] has as its system human skin. In words: Skin blanch response in human skin following topical application. The following applies: 600 mM solution in 70:30 ethanol:water compared with supersaturated 300 mM (−) norepinephrine-tartrate. Type of data set: in vivo. The protocol: Appropriate weights of each dry norepinephrine salt were weighed into clear glass vials, and appropriate volumes of ethanol and water at a ratio of 70:30, by volume, were added to achieve the indicated norepinephrine concentrations. The (+/−) norepinephrine-HCl dissolved to clarity with 5 second mixing at room temperature, and the (−) norepinephrine-tartrate required heating to 60° C. for 5 minutes and then mixing to clarify. 25 μL aliquots of each formulation were applied using a pipettor over multiple 2×2 cm patches of skin on volunteer's arm over a 20 second period. Images to record skin blanch onset, degree and duration were begun at 2 minute post-application. % Skin Blanch scores were assigned by visual evaluation. 100% Skin Blanch equaled the skin blanch seen after pressing firmly on the skin and quickly releasing.
Equal concentrations (300 mM) of the (−) norepinephrine enantiomer, either alone as the tartrate salt or in the presence of an equal amount of the (+) enantiomer HCl salt, were applied to human skin in the ethanol:water (70:30) delivery vehicle, and the pharmacologic efficacy of the (−) norepinephrine was scored based upon its ability to induce a skin blanch response by binding to al adrenergic receptors in the smooth muscle cells of the subcutaneous dermal blood vessels. […]

For data set [3], the system named is radiation-treated rats. Put plainly: Radiodermatitis in radiation-treated rats after topical vasoconstrictor. The following applies: two rats, 600 mM in ethanol:water (70:30) delivery vehicle applied prior to irradiation (FIG. 1). Type of data set: in vivo, rat. The text has this: In the model, a topical vasoconstrictor was applied to a shaved area on the backs of rats prior to irradiation with a Cs^137 source. The severity of radiodermatitis was scored on day 13. Vasoconstriction at the topical treatment site was evidenced by the transient occurrence of a visible skin blanch that correlates with therapeutic efficacy in the rat radiodermatitis model. This skin blanch may serve as a surrogate efficacy marker for clinical studies. The general strategy of using topical vasoconstrictors to prevent these cancer therapy side effects is addressed in U.S. Pub. No 2007/0077219, which is incorporated by reference in its entirety herein.

The nature of data set [4]: Stability of (−) norepinephrine-HCl dissolved in water at 1000 mM. Type of data set: physicochemical. The following applies: 4° C. and 24° C., weeks/months following formulation. The protocol: (−) norepinephrine-HCl dissolved in water at 1000 mM is stable at 4° C. and 24° C. as determined by the absence of precipitate or colored oxidation products in the weeks/months following initial formulation. Previous formulations of norepinephrine-tartrate in saline (e.g., Levophed®, Hospira, Inc., Lake Forest, Ill.) have norepinephrine concentrations of 1-5 mM.
(−) norepinephrine-HCl was weighed into a glass vial. An appropriate volume of N2-purged water ([…] with vigorous N2 bubbling and stir bar) was delivered to the vial. The vial headspace was flushed with N2 gas and the vial was sealed. The vial was vortexed for 5 seconds to produce a clear solution. A weighed amount of dry citric acid solid was added to the (−) norepinephrine-HCl solution, the vial headspace was flushed with N2 and the vial was sealed. The vial was vortexed until the solution was clear. 200 μl aliquots of (−) norepinephrine-HCl+citric acid solution were added to 2.0 ml, clear, glass vials (previously rinsed with ethanol and dried). The vial headspaces were optionally flushed with N2 gas and the vials were sealed. 3.0 ml of (−) norepinephrine-HCl+citric acid solution was transferred to a glass vial, an appropriate dry weight of sodium EDTA was added to the vial, the vial headspace was flushed with N2 gas, the vial was sealed and the vial was vortexed until clear. […]

Data set [5] relates to radiation-treated rats. The note with it: topical, applied prior to irradiation of rat skin; cited from earlier work.
Data set [6] addresses β2 adrenergic receptor (Homo sapiens, UniProt P07550). The following applies: cited from earlier work.
The conditions of data set [7]: super-saturated solutions for topical application; cited from earlier work.

β2 adrenergic receptor, sequence (P07550 whole entry, species assumed): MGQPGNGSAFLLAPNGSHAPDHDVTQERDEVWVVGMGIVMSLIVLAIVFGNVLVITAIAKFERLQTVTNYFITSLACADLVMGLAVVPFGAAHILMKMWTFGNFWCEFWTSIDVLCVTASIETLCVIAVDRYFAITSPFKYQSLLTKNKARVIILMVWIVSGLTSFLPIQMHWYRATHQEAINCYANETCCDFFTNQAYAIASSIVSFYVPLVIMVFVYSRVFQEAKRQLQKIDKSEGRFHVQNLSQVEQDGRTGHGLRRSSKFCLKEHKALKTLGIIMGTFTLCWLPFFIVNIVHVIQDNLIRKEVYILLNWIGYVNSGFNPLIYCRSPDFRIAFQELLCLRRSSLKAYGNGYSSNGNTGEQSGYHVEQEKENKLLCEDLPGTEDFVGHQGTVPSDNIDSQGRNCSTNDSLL

Turning to `Cl.NCC(O)c1ccc(O)c(O)c1` (racemic) [(+/−) norepinephrine-HCl], in data set [1], the maximum solubility entry is “at least 2000 mM” and the “solubility relative to (−) norepinephrine-tartrate” value is listed as “at least 10 fold”. In addition, in data set [2], the “vasoconstrictor activity in inducing a skin blanch response” value is reported as “at least the same activity”.

On to `Cl.NC[C@H](O)c1ccc(O)c(O)c1` [(−) norepinephrine-HCl], for which the maximum solubility entry in data set [1] is “at least 2000 mM”. Also, in data set [3], the occurrence of radiodermatitis entry was “absence of radiodermatitis”. The “stability by absence of precipitate or colored oxidation products” value in data set [4] was “stable”.

On to `CNC[C@H](O)c1ccc(O)c(O)c1` [epinephrine], for which the “protection against development of radiation dermatitis” value in data set [5] is given as “complete protection”.

For the molecule `NC[C@H](O)c1ccc(O)c(O)c1` [norepinephrine], the “binding to the β2 adrenergic receptor” value in data set [6] is reported as “does not bind”. Also, the “protection against development of radiation dermatitis” value in data set [5] is recorded as “the same protection”.

Turning to (−) norepinephrine-tartrate, in data set [1], the maximum solubility worked out at 200 mM and the solubility limit result was “about 200 mM”. Also, in data set [7], the “stability of super-saturated solution” value is “stable for only a few hours”.
